Molecules are shown by their SMILES.

The record followed here is US4980362A, “4-substituted-2-alkoxytetrahydrofuran derivatives” (J. Uriach & CIA. S.A., priority 1990, dated 1990).

Assay [1] relates to platelet aggregation induced by PAF. Kind of assay: Test 1: Inhibition of platelet aggregation induced by PAF. In kind it is cell-based, rabbit (male New Zealand albino). The following applies: rabbit platelet rich plasma, PAF (C18) 16 nM final, Born nephelometric technique. The procedure: Test 1: Inhibition of platelet aggregation induced by PAF.
The blood is obtained by cardiac puncture of male New Zealand albino rabbits (between 2 and 2.5 Kg of weight) and coagulation is prevented by adding 1 part of 3.16% sodium citrate dihydrate in 9 parts of blood. The platelet rich plasma (PRP) is prepared by blood centrifugation at 250×g for 10 min. at 4° C. and it is diluted with platelet poor plasma (PPP) by additional centrifugation at 3000×g for 10 min. The amount of platelets is adjusted to […]. The platelet aggregation induced by PAF (C18; prepared in our laboratory) (16 nM, final) is determined by the Born nephelometric technique (J. Physiol., 1962, 162, 67) using a aggregometer Chrono-log 500. The activities of the inhibitors are expressed as IC50, that is to say the concentration of the drug needed to inhibit the platelet aggregation by 50%.

Assay [2] has as its system hypotension induced by PAF. Kind of assay: Test 2: Inhibition of the hypotensive effect induced by PAF in normotense rats. In kind it is in vivo, rat (male Sprage Dawley). The following applies: anesthetized male rats, compound 3 min before PAF 0.5 mcg/Kg i.v., text calls it IC50; for ED50: Rattus norvegicus, iv, read-out: CI50 (the source's name); for CI50: i.v. The procedure: Test 2 - Inhibition of the hypotensive effect induced by PAF in normotense rats.
Male Sprage Dawley rats, of 180-220 g of weight, anesthetized with sodium pentobarbital (50 mg/Kg, i.p. 1 mL/100 g) have been used. In order to measure the average arterial pressure, a polyethylene catheter is introduced into the carotid artery. The arterial pressure is recorded with the help of a transducer connected with a R611 Beckman polygraph. The tested compounds are administered through the femoral vein 3 min before the injection of PAF (0.5 mcg/Kg, i.v.).

The subject of the next assay is PAF-induced mortality. Description: Test 3: PAF-induced mortality in mice (p.o.). In kind it is in vivo, mouse (Swiss). The following applies: 1 hour before C18-PAF 100 mcg/kg plus propanolol 1 mg/kg i.v., inhibition of mortality, observed 2 hours after PAF; for ED50: Mus musculus, po, 2 h, read-out: ID50 (the source's name). The procedure:
Finally, certain compounds of the present invention show an improved oral activity with regard to other chemically related PAF-antagonists reported in the literature, such as CV-6209, (disclosed in EP No. 157609) as shown by test 3:
Test 3 - PAF-induced mortality in mice (p.o.)
The experiment is carried out according to the method of Young et al. (Prostaglandins, 1985, 30, 545-551). Groups of 10 Swiss mice weighing 22-26 g are used. 100 mcg/kg of C18 -PAF plus 1 mg/kg of propanolol are intravenously administered in a lateral tail vein 1 hour after the oral administration of test compounds (0.1 mL/10 g). Every animal is observed 2 hours after the PAF injection. Percent inhibition of mortality due to treatments in comparison with control group are recorded. Results are given as ID50 values (mg/kg) in table 3.

Where [3] appears, read: Oryctolagus cuniculus, Platelet.

The term IC50 denotes the point on the concentration scale where inhibition reaches its midpoint. A low value points to higher potency. The molecule `CCCCCCCCCCCCCCCCCCOC1CC(COC(=O)N(Cc2cccc[n+]2C)C(C)=O)CO1` (racemic) [Compound 3, (±)-cis,trans-1-methyl-2-[N-acetyl-N-[[[(2-octadecyloxytetrahydrofuran-4-yl)methoxy]carbonyl]amino]methyl]pyridinium iodide] displayed a 50% inhibitory concentration (IC50) in assay [1] (setting [3]) of 45 nM. The ED50 is 0.08 mg/kg in assay [2] and > 100 mg/kg in the assay with PAF-induced mortality.
As for `CCCCCCCCCCCCCCCCCCOC1CC(COC(=O)N(Cc2cccc[n+]2CC)C(C)=O)CO1` (racemic) [Compound 4, (±)-cis,trans-1-ethyl-2-[N-acetyl-N-[[[(2-octadecyloxytetrahydrofuran-4-yl)methoxy]carbonyl]amino]methyl]pyridinium iodide], in assay [1] (setting [3]), it took 16 nM to reach half-maximal inhibition (IC50). The molecule further showed a CI50 in assay [2] of 0.053 mg/kg. In the assay on PAF-induced mortality, the ED50 was found to be 14 mg/kg.
Take `CCCCCCCCCCCCCCCCCCOC1CC(COC(=O)N(Cc2cccc[n+]2CC)C(C)=O)CO1` (racemic) [Compound 5, (±)-cis,trans-1-ethyl-2-[N-acetyl-N-[[[(2-octadecyloxytetrahydrofuran-4-yl)methoxy[carbonyl[amino]methyl]pyridinium chloride]: the IC50 in assay [1] is 12 nM. The molecule also gave a CI50 in assay [2] of 0.024 mg/kg. Moreover, in the assay with PAF-induced mortality (120 min), the ID50 came out at 19 mg/kg.
For the molecule `CCCCCCCCCCCCCCCCOC1CC(COC(=O)N(Cc2cccc[n+]2CC)C(C)=O)CO1` (racemic) [Compound 8, (±)-cis,trans-1-ethyl-2-[N-acetyl-N-[[[(2-hexadecyloxytetrahydrofuran-4-yl)methoxy]carbonyl]amino]methyl]pyridinium iodide], the IC50 in assay [1] (setting [3]) was 12 nM. Moreover, the ED50 in assay [2] stood at 0.01 mg/kg; in the assay with PAF-induced mortality, 80 mg/kg.
In assay [1] (setting [3]), `CCOC1CC(COC(=O)N(Cc2cccc[n+]2CC)C(C)=O)CO1` (racemic) [Compound 11, (±)-cis,trans-1-ethyl-2-[N-acetyl-N-[[[(2-ethoxytetrahydrofuran-4-yl)methoxy]carbonyl]amino]methyl]pyridinium iodide] yielded a 50% inhibitory concentration (IC50) of 2900 nM. The ED50 in assay [2] is 2.3 mg/kg.
As for `CC[n+]1ccccc1CN(C(C)=O)C(=O)OCC1COC(OCCC(C)C)C1` (racemic) [Compound 14, (±)-cis,trans-1-ethyl-2-[N-acetyl-N-[[[(2-(3-methylbutoxy)tetrahydrofuran-4-yl)methoxy]carbonyl]amino]methyl]pyridinium iodide], the IC50 in assay [1] (setting [3]) was found to be 700 nM. Besides, the ED50 in assay [2] was found to be 0.21 mg/kg.
In the same order, the values of `CC[n+]1ccccc1CN(C(C)=O)C(=O)OCC1COC(OCCCc2ccccc2)C1` (racemic) [Compound 17, (±)-cis,trans-1-ethyl-2-[N-acetyl-N-[[[(2-(3-phenylpropoxy)tetrahydrofuran-4-yl)methoxy]carbonyl]amino]methyl]pyridinium iodide] are 190 nM and 0.12 mg/kg.
On to `CCCCCCCCCCCCCCCCCCNC(=O)OCC(COC(=O)N(Cc1cccc[n+]1CC)C(C)=O)OC` (stereo not shown) [CV-6209, reference compound], for which, in the assay with PAF-induced mortality, the ED50 came to 70 mg/kg.
